One may read the IC50 as the concentration at which inhibition is half-maximal. Low values mean inhibition by little substance, high ones a need for much substance.

In the assay the target is T1, fMet-Leu-Phe receptor (Homo sapiens, UniProt P21462).
T1 sequence (P21462 whole entry): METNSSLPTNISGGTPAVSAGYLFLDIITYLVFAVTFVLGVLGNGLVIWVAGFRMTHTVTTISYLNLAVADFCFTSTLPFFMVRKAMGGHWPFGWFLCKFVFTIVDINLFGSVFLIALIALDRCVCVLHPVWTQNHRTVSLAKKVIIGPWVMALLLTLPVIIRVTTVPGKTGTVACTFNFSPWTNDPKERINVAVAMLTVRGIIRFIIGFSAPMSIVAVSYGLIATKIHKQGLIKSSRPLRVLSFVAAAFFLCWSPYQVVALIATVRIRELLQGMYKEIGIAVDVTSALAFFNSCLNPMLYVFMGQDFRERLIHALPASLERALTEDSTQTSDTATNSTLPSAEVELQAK
As to the kind of experiment: FPR ligands, dose response (AID 519).

With `COc1cc(C2C(C(=O)c3ccc(C)o3)C(=O)C(=O)N2Cc2cccnc2)ccc1O` (stereo unspecified) [2-(3-methoxy-4-oxidanyl-phenyl)-3-(5-methylfuran-2-yl)carbonyl-4-oxidanyl-1-(pyridin-3-ylmethyl)-2H-pyrrol-5-one], the IC50 was more than 66.7 µM.
`COc1cc(C2C(C(=O)c3ccco3)C(=O)C(=O)N2c2cc(C)on2)cc(Br)c1O` (stereo unspecified) [2-(3-bromanyl-5-methoxy-4-oxidanyl-phenyl)-3-(furan-2-ylcarbonyl)-1-(5-methyl-1,2-oxazol-3-yl)-4-oxidanyl-2H-pyrrol-5-one] had an IC50 of 47.7 µM.
As to `COc1cc(C2C(C(=O)c3cccs3)C(=O)C(=O)N2Cc2ccco2)cc(OC)c1OC` (stereo unspecified) [1-(2-furanylmethyl)-4-hydroxy-3-[oxo(thiophen-2-yl)methyl]-2-(3,4,5-trimethoxyphenyl)-2H-pyrrol-5-one], the IC50 turned out to be 27 µM.
Molecule `COc1cccc(C(=O)C2C(=O)C(=O)N(Cc3cccnc3)C2c2ccco2)c1` (stereo unspecified) [(4Z)-5-(2-furanyl)-4-[hydroxy-(3-methoxyphenyl)methylidene]-1-(3-pyridinylmethyl)pyrrolidine-2,3-dione] came in with an IC50 of more than 66.7 µM.
`CCOc1ccc(C2C(C(=O)c3cccs3)C(=O)C(=O)N2CCCn2ccnc2)cc1` (stereo unspecified) [2-(4-ethoxyphenyl)-1-(3-imidazol-1-ylpropyl)-4-oxidanyl-3-thiophen-2-ylcarbonyl-2H-pyrrol-5-one] registered an IC50 of 57.1 µM.
`Cc1ccc(C(=O)C2C(=O)C(=O)N(CCCn3ccnc3)C2c2ccc(OC(C)C)cc2)o1` (stereo unspecified) [1-(3-imidazol-1-ylpropyl)-3-(5-methylfuran-2-yl)carbonyl-4-oxidanyl-2-(4-propan-2-yloxyphenyl)-2H-pyrrol-5-one] yielded an IC50 of more than 66.7 µM.
To `O=C1C(=O)N(CC2CCCO2)C(c2cccnc2)C1C(=O)c1ccco1` (stereo unspecified) [3-(furan-2-carbonyl)-4-hydroxy-1-(oxolan-2-ylmethyl)-2-pyridin-3-yl-2H-pyrrol-5-one] belongs 54.8 µM.
In turn, `O=C1CCCC(=O)C1C(C#Cc1ccccc1)C1C(=O)CCCC1=O` [3-hydroxy-2-[1-(2-hydroxy-6-keto-cyclohexen-1-yl)-3-phenyl-prop-2-ynyl]cyclohex-2-en-1-one] had an IC50 of more than 66.7 µM.
Regarding `C=CCN1C(=O)C2(c3ccccc31)C(C(=O)c1ccc3c(c1)OCCO3)C(=O)C(=O)N2CCCOC` (stereo unspecified) [(4'E)-1-allyl-4'-[2,3-dihydro-1,4-benzodioxin-6-yl(hydroxy)methylene]-1'-(3-methoxypropyl)spiro[indoline-3,5'-pyrrolidine]-2,2',3'-trione], the IC50 was more than 66.7 µM.
`CCOc1ccc(C(=O)C2C(=O)C(=O)N(CC3CCCO3)C2c2ccco2)cc1` (stereo unspecified) [(4Z)-4-[(4-ethoxyphenyl)-hydroxymethylidene]-5-(2-furanyl)-1-(2-oxolanylmethyl)pyrrolidine-2,3-dione] displayed an IC50 of 32 µM.
`CCOc1cc(C2C(C(=O)c3ccco3)C(=O)C(=O)N2CCc2ccccc2)ccc1O` (stereo unspecified) [2-(3-ethoxy-4-hydroxyphenyl)-3-(furan-2-carbonyl)-4-hydroxy-1-(2-phenylethyl)-2H-pyrrol-5-one] had an IC50 of more than 66.7 µM.
To `CCCOc1ccc(C2C(C(=O)c3ccc(C)o3)C(=O)C(=O)N2CCCn2ccnc2)cc1` (stereo unspecified) [1-(3-imidazol-1-ylpropyl)-3-(5-methylfuran-2-yl)carbonyl-4-oxidanyl-2-(4-propoxyphenyl)-2H-pyrrol-5-one] belongs 13.8 µM; to `COc1ccc(CCN2C(=O)C(=O)C(C(=O)c3ccco3)C2c2cccs2)cc1OC` (stereo unspecified) [1-[2-(3,4-Dimethoxy-phenyl)-ethyl]-4-(furan-2-carbonyl)-3-hydroxy-5-thiophen-2-yl-1,5-dihydro-pyrrol-2-one], 19 µM; to `C=CCOc1cccc(C2C(C(=O)c3ccco3)C(=O)C(=O)N2CCN2CCOCC2)c1` (stereo unspecified) [3-(furan-2-carbonyl)-4-hydroxy-1-(2-morpholin-4-ylethyl)-2-(3-prop-2-enoxyphenyl)-2H-pyrrol-5-one], more than 66.7 µM.
The molecule `CCOc1cccc(C(=O)C2C(=O)C(=O)N(Cc3ccco3)C2c2ccncc2)c1` (stereo unspecified) [(4Z)-1-(2-furfuryl)-4-[hydroxy(m-phenetyl)methylene]-5-(4-pyridyl)pyrrolidine-2,3-quinone] showed an IC50 of more than 66.7 µM.
As for `Cc1nc2c(C)cccn2c1C(=O)C1C(=O)C(=O)N(CCN2CCOCC2)C1c1cccs1` (stereo unspecified) [(4E)-4-[(2,8-dimethyl-3-imidazo[1,2-a]pyridinyl)-hydroxymethylidene]-1-[2-(4-morpholinyl)ethyl]-5-thiophen-2-ylpyrrolidine-2,3-dione], the IC50 was more than 66.7 µM.
For `CCCOc1ccc(C2C(C(=O)c3ccco3)C(=O)C(=O)N2CCCn2ccnc2)cc1` (stereo unspecified) [3-(furan-2-carbonyl)-4-hydroxy-1-(3-imidazol-1-ylpropyl)-2-(4-propoxyphenyl)-2H-pyrrol-5-one], the IC50 was more than 66.7 µM.
Take `COc1cc(C2C(C(=O)c3ccc4c(c3)CC(C)O4)C(=O)C(=O)N2CCCn2ccnc2)ccc1O` (stereo unspecified) [(4E)-1-(3-imidazol-1-ylpropyl)-5-(3-methoxy-4-oxidanyl-phenyl)-4-[(2-methyl-2,3-dihydro-1-benzofuran-5-yl)-oxidanyl-methylidene]pyrrolidine-2,3-dione]: the midpoint of inhibition, the IC50, lay at 57.5 µM.
In turn, `O=C1C(=O)N(CCN2CCOCC2)C(c2ccccc2)C1C(=O)c1cccs1` (stereo unspecified) [1-(2-morpholin-4-ylethyl)-4-oxidanyl-2-phenyl-3-thiophen-2-ylcarbonyl-2H-pyrrol-5-one] had an IC50 of more than 66.7 µM.
With `CCOc1cccc(C(=O)C2C(=O)C(=O)N(Cc3cccnc3)C2c2ccco2)c1` (stereo unspecified) [(4Z)-4-[(3-ethoxyphenyl)-hydroxymethylidene]-5-(2-furanyl)-1-(3-pyridinylmethyl)pyrrolidine-2,3-dione], the IC50 is more than 66.7 µM.
Consider `Cc1ccc(C(=O)C2C(=O)C(=O)N(Cc3ccccc3)C2c2cccnc2)o1` (stereo unspecified) [1-benzyl-3-hydroxy-4-[(5-methylfuran-2-yl)carbonyl]-5-(pyridin-3-yl)-2,5-dihydro-1H-pyrrol-2-one], for which the IC50 is more than 66.7 µM.
With `COc1ccc(C2C(C(=O)c3ccco3)C(=O)C(=O)N2Cc2cccnc2)cc1OC` (stereo unspecified) [2-(3,4-dimethoxyphenyl)-3-(furan-2-carbonyl)-4-hydroxy-1-(pyridin-3-ylmethyl)-2H-pyrrol-5-one], the IC50 was more than 66.7 µM.
In turn, `COc1ccccc1C1C(C(=O)c2ccccc2)C(=O)C(=O)N1CC(C)C` (stereo unspecified) [(4Z)-4-[hydroxy(phenyl)methylene]-1-isobutyl-5-(2-methoxyphenyl)pyrrolidine-2,3-quinone] returned an IC50 of 5.5 µM. This lies in the single-digit micromolar range.
`CCOc1cc(C2C(C(=O)c3ccc(C)o3)C(=O)C(=O)N2CCc2ccccc2)ccc1O` (stereo unspecified) [2-(3-ethoxy-4-hydroxyphenyl)-4-hydroxy-3-(5-methylfuran-2-carbonyl)-1-(2-phenylethyl)-2H-pyrrol-5-one] had an IC50 of 30.4 µM.
`Cc1cc(N2C(=O)C(=O)C(C(=O)c3ccco3)C2c2cccnc2)no1` (stereo unspecified) [3-(furan-2-carbonyl)-4-hydroxy-1-(5-methyl-1,2-oxazol-3-yl)-2-pyridin-3-yl-2H-pyrrol-5-one] came in with an IC50 of more than 66.7 µM.
Consider `COc1ccc(C2C(C(=O)c3ccccc3)C(=O)C(=O)N2CC(C)O)c(OC)c1` (stereo unspecified) [(4Z)-5-(2,4-dimethoxyphenyl)-4-[hydroxy(phenyl)methylene]-1-(2-hydroxypropyl)pyrrolidine-2,3-quinone], for which the 50% inhibitory concentration (IC50) stood at 38.6 µM. That is a double-digit micromolar value.
Take `COc1ccc(C2C(C(=O)c3cccs3)C(=O)C(=O)N2c2nnc(C)s2)cc1OC` (stereo unspecified) [2-(3,4-dimethoxyphenyl)-1-(5-methyl-1,3,4-thiadiazol-2-yl)-4-oxidanyl-3-thiophen-2-ylcarbonyl-2H-pyrrol-5-one]: the IC50 was more than 66.7 µM.
The molecule `O=C1C(=O)N(Cc2ccccc2)C(c2cccnc2)C1C(=O)c1ccco1` (stereo unspecified) [1-Benzyl-4-(furan-2-carbonyl)-3-hydroxy-5-pyridin-3-yl-1,5-dihydro-pyrrol-2-one] registered an IC50 of 30.5 µM.
`Cc1ccc(C(=O)C2C(=O)C(=O)N(c3cc(C)on3)C2c2cccc(Br)c2)cc1` (stereo unspecified) [(4E)-5-(3-bromophenyl)-1-(5-methyl-1,2-oxazol-3-yl)-4-[(4-methylphenyl)-oxidanyl-methylidene]pyrrolidine-2,3-dione] yielded an IC50 of more than 66.7 µM.
The molecule `COc1ccc(C(=O)C2C(=O)C(=O)N(CCN3CCOCC3)C2c2ccc(C)cc2)cc1` (stereo unspecified) [(4Z)-4-[(4-methoxyphenyl)-oxidanyl-methylidene]-5-(4-methylphenyl)-1-(2-morpholin-4-ylethyl)pyrrolidine-2,3-dione] came in with an IC50 of more than 66.7 µM.
As to `COCCCN1C(=O)C(=O)C(C(=O)c2ccco2)C1c1ccccc1` (stereo unspecified) [3-(furan-2-carbonyl)-4-hydroxy-1-(3-methoxypropyl)-2-phenyl-2H-pyrrol-5-one], the IC50 worked out at 14.5 µM. This lies in the double-digit micromolar range.
Turning to `COc1cc(-n2nc(C)c3c2OC(=N)C(C#N)C3c2ccccc2)c(Cl)c(Br)c1O` (stereo unspecified) [6-amino-1-(3-bromo-2-chloro-4-hydroxy-5-methoxyphenyl)-3-methyl-4-phenyl-1,4-dihydropyrano[2,3-c]pyrazole-5-carbonitrile], the IC50 was found to be 32.5 µM.
For the molecule `COc1ccc(OC)c(C2C(C(=O)c3cc4ccccc4o3)C(=O)C(=O)N2c2cc(C)on2)c1` (stereo unspecified) [3-(1-benzofuran-2-carbonyl)-2-(2,5-dimethoxyphenyl)-4-hydroxy-1-(5-methyl-1,2-oxazol-3-yl)-2H-pyrrol-5-one], the IC50 came out at 36.6 µM.
In the case of `COc1ccccc1C1C(C(=O)c2ccccc2)C(=O)C(=O)N1CC(C)O` (stereo unspecified) [(4Z)-4-[hydroxy(phenyl)methylene]-1-(2-hydroxypropyl)-5-(2-methoxyphenyl)pyrrolidine-2,3-quinone], the IC50 stood at 24.6 µM.
To `O=c1c(C23CC4CC(CC(C4)C2)C3)c(O)n(-c2ccccc2)n1-c1ccccc1` [MLS000526352] belongs 11.5 µM.
`O=C1C(=O)N(c2ncccn2)C(c2cccc(Cl)c2)C1C(=O)c1ccco1` (stereo unspecified) [2-(3-chlorophenyl)-3-(furan-2-carbonyl)-4-hydroxy-1-pyrimidin-2-yl-2H-pyrrol-5-one] showed an IC50 of more than 66.7 µM.

The values above are taken from BindingDB's records for doi:10.7270/Q2J67FB5 (Nmmlsc, 2007).
